Experimental data reported in US20100130522A1, “COMPOUNDS FOR INFLAMMATION AND IMMUNE-RELATED USES” (Synta Pharmaceuticals Corp., priority 2008, published 2010).
Counter-ions that a name gives are not always drawn.

How the values were obtained:
[1] = system: IL-2 production, Jurkat cells; experiment: Inhibition of IL-2 production in PHA-activated Jurkat cells (ELISA); format: cell-based; details: Homo sapiens, 1% FBS, given as activity class
Protocol: Jurkat cells were placed in a 96 well plate (0.5 million cells per well in 1% FBS medium), and then a test compound of this invention was added at different concentrations. After 10 minutes, the cells were activated with PHA (final concentration 2.5 μg/mL) and incubated for 20 hours at 37° C. under 5% CO2. The final volume was 200 μL. Following incubation, the cells were centrifuged, and the supernatants collected and stored at −70° C. prior to assaying for IL-2 production. A commercial ELISA kit (IL-2 Eli-pair, Diaclone Research, Besancon, France) was used to detect production of IL-2, from which dose response curves were obtained. The IC50 value was calculated as the concentration at which 50% of maximum IL-2 production after stimulation was inhibited versus a non-stimulation control.

CRACM1/STIM1-CHOK1 = biological target: T1, CRACM1/STIM1-CHOK1 (Homo sapiens, UniProt Q96D31); experiment: Patch clamp inhibition of ICRAC current in CRACM1/STIM1-CHOK1 cells; format: cell-based; details: 500 nM; given as activity class
T1 construct: Full length human Stim1, CracM1, CracM2 and CracM3 cDNA; Stim1 induced with doxycycline
Protocol: Manual patch clamp experiments are conducted in the tight-seal whole-cell configuration at room temperature (21-25° C.). Patch pipettes are fashioned from borosilicate glass capillary tubes and have resistances between 2-4 MΩ after filling with standard intracellular solution. High resolution current recordings are acquired with a computer-based patch clamp amplifier system (EPC-10, HEKA, Lambrecht, Germany). All voltages are corrected for a liquid junction potential of 10 mV between external and internal solutions with glutamate as the intracellular anion. Currents are filtered at 2.9 kHz and digitized at 10 μs intervals. Capacitive currents and series resistance are determined and corrected before each voltage ramp using the automatic capacitance compensation of the EPC-10.
Automated patch clamp experiments are conducted with the QPatch 16 (Sophion Bioscience, Ballerup, Denmark) at room temperature (21-25° C.). Immediately following the establishment of giga-seal whole-cell configuration, the cells membrane potential is clamped at 0 mV. Voltage ramps of 50 ms duration spanning the voltage range of −100 to +100 mV are then stimulated at a rate of 0.33 Hz. Currents are filtered at 2.9 kHz and digitized at 200 μs intervals. Capacitive currents and series resistance are determined and corrected before each voltage ramp using the automatic capacitance compensation.
In general, a whole cell patch clamp method is used to examine the effects of a compound of the invention on a channel(s) that mediates ICRAC. In such experiments, a baseline ICRAC measurement is established within the first 70 voltage ramps, or 140 seconds, for a patched cell. Then the cells are perfused with the compound to be tested and the effect of the compound on ICRAC is measured for at least an additional 440 to 500 seconds. A compound that modulates ICRAC (e.g., inhibits) is a compound that is useful in the invention for modulating CRAG ion channel activity.
Off-line analysis with the Heka PatchMaster software is used to separate the ICRAC membrane current from the cells basal background currents. In a typical recording, InsP3 stimulated ICRAC currents begin to develop in 6 to 12 seconds after whole cell is established. Therefore, the first 1-4 voltage ramps represent the basal membrane currents in the absence of ICRAC and the average value is subtracted from all subsequent traces. The current value at −80 mV for each ramp trace is then measured and plotted against time. The resulting current versus time data is exported into a Microsoft Excel spreadsheet. The % ICRAC inhibition in each cell is calculated by comparing the amount of current just prior to the compound perfusion to the amount of current after the cells has been perfused with the compound for 440-500 seconds. The IC50 value and Hill coefficient for each compound is estimated by fitting all the individual data points to a single-site Hill equation.
TREx™-CHO cells were transfected with human Stim1 (recombinant DNA in pcDNA4/TO/myc-His™ A with a myc epitope tag in the N-terminal) and either CracM1, CracM2 or CracM3 (recombinant DNA in pcDNA 3.1 with a HA epitope tag in the N-terminal). Stably expressing cells were selected by growing the transfected cells in antibiotics for two to three weeks. Individual cell clones were isolated via serial dilution. Full length human Stim1, CracM1, CracM2 and CracM3 cDNA, TREx™-CHO cells, pcDNA4/TO/myc-His™ A and pcDNA 3.1 were purchased from Invitrogen (Carlsbad, Calif.). All cells clones are grown in Ham's F-12 media supplemented with 10% fetal bovine serum, penicillin 100 U/ml, streptomycin 100 ? g/ml, Zeocin™ (200 ? g/ml), Geneticin (500 ? g/ml) and blasticidin (10 ? g/ml) in an atmosphere of 95% air/5% CO2. Stim1 expression was induced with doxycycline (1 ? g/ml) for 16-20 hrs. […]

T1 sequence (Q96D31 whole entry): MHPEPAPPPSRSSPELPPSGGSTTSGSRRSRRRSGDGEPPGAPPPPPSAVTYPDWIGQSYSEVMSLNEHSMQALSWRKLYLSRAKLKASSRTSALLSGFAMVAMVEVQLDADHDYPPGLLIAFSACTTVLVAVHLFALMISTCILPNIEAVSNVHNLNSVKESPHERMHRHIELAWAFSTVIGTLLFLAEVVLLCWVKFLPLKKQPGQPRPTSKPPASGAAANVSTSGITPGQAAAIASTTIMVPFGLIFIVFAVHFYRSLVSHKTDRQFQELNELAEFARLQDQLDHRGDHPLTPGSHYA

IC50 [1] [nM]	inhibition at 0.5 µM (CRACM1/STIM1-CHOK1) [%]	Compound
< 50	< 50	Cc1ccc(-c2nc(-c3cccnc3)cs2)cc1-c1ccc(NC(=O)c2c(F)cccc2F)cc1 [Compound 19, 2,6-difluoro-N-(2′-methyl-5′-(4-(pyridin-3-yl)thiazol-2-yl)biphenyl-4-yl)benzamide hydrochloride]
< 50	70 to 100	Cc1ccc(-c2nc(-c3cccnc3)cs2)cc1-c1cnc(NC(=O)c2c(F)cccc2F)cn1 [Compound 20, 2,6-difluoro-N-(5-(2-methyl-5-(4-(pyridin-3-yl)thiazol-2-yl)phenyl)pyrazin-2-yl)benzamide]
50 to 100	< 50	Cc1ccc(-c2ncc(-c3cnco3)s2)cc1-c1ccc(NC(=O)c2c(F)cccc2F)cc1 [Compound 21, 2,6-difluoro-N-(2′-methyl-5′-(5-(oxazol-5-yl)thiazol-2-yl)biphenyl-4-yl)benzamide]
< 50	70 to 100	COc1ccc(-c2ccc(C)c(-c3ccc(NC(=O)c4c(F)cccc4F)cc3)c2)cn1 [Compound 22, 2,6-difluoro-N-(5′-(6-methoxypyridin-3-yl)-2′-methylbiphenyl-4-yl)benzamide]
